Peptide text beside a SMILES is read from it. * marks the point of attachment. X1 = Oc1cccc(N*)c1 A value given as a limit tells only on which side of the number the result lay.

Sequence of Protease (Q9YQ12 whole entry): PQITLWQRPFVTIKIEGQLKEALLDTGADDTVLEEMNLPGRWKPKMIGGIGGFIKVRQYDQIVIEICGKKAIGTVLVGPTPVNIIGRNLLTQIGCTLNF

This experiment has as its target Protease (Human immunodeficiency virus 1, UniProt Q9YQ12). In words: Inhibition of HIV1 subtype C protease expressed in Escherichia coli BL21 assessed as hydrolysis of substrate using chromogenic substrate Lys-Ala-Arg-Val-Nle-p-nitro-Phe-Glu-Ala-Nle-NH2 by spectrophotometric analysis.
In general, IC50 refers to the midpoint of a concentration-inhibition curve. Consider `CC[C@H](C)[C@H](NC(=O)[C@@H](N)CO)C(=O)N[C@@H](C)C(=O)N[C@@H](CCC(N)=O)C(=O)NC12NC(=O)C3(O)C4C5CC(C6C5C3C61)C42` (mixture of isomers), for which the IC50 was 5 µM.
On to `CC[C@H](C)[C@H](NC(=O)[C@@H](N)CO)C(=O)N[C@@H](C)C(=O)N[C@@H](CCC(=O)O)C(=O)NC12NC(=O)C3(O)C4C5CC(C6C5C3C61)C42` (mixture of isomers), for which the IC50 was 0.078 µM.
Next, `CC[C@H](C)[C@H](N)C(=O)N[C@@H](C)C(=O)N[C@@H](CCC(=O)O)C(=O)NC12NC(=O)C3(O)C4C5CC(C6C5C3C61)C42` (mixture of isomers): 0.5 µM.
In the case of `CC[C@H](C)[C@H](NC(=O)[C@@H](N)CO)C(=O)N[C@H](C(=O)N[C@@H](CCC(=O)O)C(=O)NC12NC(=O)C3(O)C4C5CC(C6C5C3C61)C42)C(C)C` (mixture of isomers), the IC50 came to 2 µM.
Regarding `CC[C@H](C)[C@H](NC(=O)[C@@H](N)CO)C(=O)N[C@@H](C)C(=O)N[C@@H](CCC(=O)O)C(=O)NC12NC(=O)C3(OC(C)=O)C4C5CC(C6C5C3C61)C42` (mixture of isomers), the IC50 is more than 10 µM.
For the molecule `CC[C@H](C)[C@H](NC(=O)[C@@H](N)CO)C(=O)N[C@@H](C)C(=O)N[C@]12NC(=O)[C@@]3(O)C4C5CC(C6C5C3C61)C42` (some centres undefined), the IC50 stood at 0.5 µM.
On to `CC[C@H](C)[C@H](NC(=O)[C@@H](N)CO)C(=O)N[C@@H](C)C(=O)N[C@@]12NC(=O)[C@]3(O)C4C5CC(C6C5C3C61)C42` (some centres undefined), for which the IC50 turned out to be 10 µM.
`COC(=O)N[C@H](C(=O)N[C@@H](Cc1ccccc1)[C@@H](O)CN(Cc1ccc(-c2ccccn2)cc1)NC(=O)[C@@H](NC(=O)OC)C(C)(C)C)C(C)(C)C` [ATAZANAVIR]: the IC50 amounted to 0.004 µM.
Next, `CC[C@H](C)[C@H](NC(=O)[C@@H](N)CO)C(=O)N[C@@H](C)C(=O)N[C@@H](CCC(=O)O)C(=O)Nc1cccc(O)c1` (H-SIAE-X1): 10 µM.

For the origin of these results see ChEMBL document CHEMBL1759903, “Pentacycloundecane-based inhibitors of wild-type C-South African HIV-protease” (Bioorg Med Chem Lett, 2011).
